Laboratory results as given in patent US7259146B2, “Neuroprotective peptides” (Ortho-McNeil Pharmaceutical, Inc., priority 2000, dated 2007).
Entries after “also recorded” stand apart in the source; their conditions may differ.

Test system: spontaneous hypertensive rats rendered ischemic
Assay: Experimental model of cerebral ischemia (tandem CCA/MCA occlusion), infarct volume
Type: in vivo, rat
Experimental: Male spontaneous hypertensive rats (Charles River) weighing between 250–300 g were weighed and then anesthetized with ketamine (100 mg/ml)/xylazine (20 mg/ml) cocktail (1.2 ml/kg; i.p.). The level of anesthetic was assessed by corneal reflex (air puff to eye) and leg jerk in response to tail or foot pinch. Once the rat was anesthetized, it was placed on a small animal surgical board and restrained during the surgical procedure. The rat's body temperature was monitored continuously with a rectal probe and maintained at 37° C. with a homeostatic heating pad.
Rats were rendered ischemic by tandem occlusion of the left common carotid artery and the left middle cerebral artery for 2 h followed by 22 h of reperfusion using a modification of the technique described by Brint and co-workers (J. Cereb Blood Flow Metab 8:474–485, 1988). Specifically, the left CCA was isolated through an incision in the ventral surface of the neck. For isolation of the ipsilateral MCA, a second incision was made between the lateral canthus of the left eye and the corresponding external auditory canal to bare the underlying skull. […]
Twenty-hours prior to the onset of ischemia, an osmotic mini-pump (Model 1003D; Alza) filled with vehicle or EPO was placed between the scapula of the rat. […] Twenty-two hours later, the rats were evaluated for behavioral performance, a blood sample was collected for terminal plasma levels of EPO and then the rat was euthanized, brain removed, sectioned and stained for histological analysis.
(§1) On Day One, the rats were rendered ischemic as described above. […] Twenty-two hours later, the rats were evaluated for behavioral performance, a blood sample was collected for terminal plasma levels of EPO and then the rat was euthanized, brain removed, sectioned and stained for histological analysis.
as §1, with “analysis. […]” for “analysis.”

EPO: purified, recombinant human EPO (rhEPO), formulated and distributed under the trademarks EPREX, ERYPO or PROCRIT
infarct volume / protection against ischemic injury (Study I: 132 or 1321 U/day continuous iv infusion via osmotic mini-pump, started before ischemia): significantly reduced infarct volume; also recorded: protects against ischemic injury | protection against ischemic damage (Study II: single iv bolus 15 min post-occlusion, 1000, 2500 or 5000 U/kg): did not protect against ischemic damage; also recorded: does not protect against ischemic injury | infarct volume / protection against ischemic injury (Study III: repeat iv bolus 2500 U/kg at 15 min, 2 h, 4 h and 6 h post-occlusion): significant decrease in infarct volume; also recorded: protects against ischemic injury
